Laboratory results: the supplement of paper PMC10307832

Key:
Experiment in all cases: relative viability (nuclei count vs DMSO), 5 days (fraction); higher = more cells survive
A-427 = system: A-427
Outline: (§1)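 Five library-drug doses in √10 steps were combined with a fixed anchor-drug dose, or a single drug was given alone, by pin tool to lung cancer cell lines in 1536-well plates the day after seeding. Nuclei were stained and counted after 5 days. Relative viability is the nuclei count in treated wells over that in vehicle wells, taken as the median of duplicate plates.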

COR-L 105 = system: COR-L 105
Outline: as §1

EPLC-272H = system: EPLC-272H
Outline: as §1

HCC-366 = system: HCC-366
Outline: as §1

HCC-78 = system: HCC-78
Outline: as §1

HOP-62 = system: HOP-62
Outline: as §1

LC-2-ad = system: LC-2-ad
Outline: as §1

LU99A = system: LU99A
Outline: as §1

LXF-289 = system: LXF-289
Outline: as §1

NCI-H1666 = system: NCI-H1666
Outline: as §1

NCI-H1792 = system: NCI-H1792
Outline: as §1

NCI-H1793 = system: NCI-H1793
Outline: as §1

NCI-H1915 = system: NCI-H1915
Outline: as §1

NCI-H1944 = system: NCI-H1944
Outline: as §1

NCI-H2009 = system: NCI-H2009
Outline: as §1

NCI-H2085 = system: NCI-H2085
Outline: as §1

NCI-H2170 = system: NCI-H2170
Outline: as §1

NCI-H358 = system: NCI-H358
Outline: as §1

NCI-H460 = system: NCI-H460
Outline: as §1

SK-LU-1 = system: SK-LU-1
Outline: as §1

SW 900 = system: SW 900
Outline: as §1

UMC-11 = system: UMC-11
Outline: as §1

## Cc1sc2c(c1C)C(c1ccc(Cl)cc1)=N[C@@H](CC(=O)OC(C)(C)C)c1nnc(C)n1-2 [JQ1] + N=C(N)NC(=N)NCCc1ccccc1 [Phenformin] (partner 250 µM)
A-427; first compound 0.04 µM
  relative viability: 0.315
A-427; first compound 0.1265 µM
  relative viability: 0.241
A-427; first compound 0.4 µM
  relative viability: 0.341
A-427; first compound 1.265 µM
  relative viability: 0.276
A-427; first compound 4 µM
  relative viability: 0.228
COR-L 105; first compound 0.04 µM
  relative viability: 0.432
COR-L 105; first compound 0.1265 µM
  relative viability: 0.239
COR-L 105; first compound 0.4 µM
  relative viability: 0.217
COR-L 105; first compound 1.265 µM
  relative viability: 0.22
COR-L 105; first compound 4 µM
  relative viability: 0.289
EPLC-272H; first compound 0.04 µM
  relative viability: 0.33
EPLC-272H; first compound 0.1265 µM
  relative viability: 0.262
EPLC-272H; first compound 0.4 µM
  relative viability: 0.249
EPLC-272H; first compound 1.265 µM
  relative viability: 0.294
EPLC-272H; first compound 4 µM
  relative viability: 0.188
HCC-366; first compound 0.04 µM
  relative viability: 0.699
HCC-366; first compound 0.4 µM
  relative viability: 0.614
HCC-366; first compound 1.265 µM
  relative viability: 0.412
HCC-366; first compound 4 µM
  relative viability: 0.376
HCC-78; first compound 0.04 µM
  relative viability: 0.727
HCC-78; first compound 0.1265 µM
  relative viability: 0.657
HCC-78; first compound 0.4 µM
  relative viability: 0.727
HCC-78; first compound 1.265 µM
  relative viability: 0.515
HCC-78; first compound 4 µM
  relative viability: 0.435
HOP-62; first compound 0.04 µM
  relative viability: 0.633
HOP-62; first compound 0.1265 µM
  relative viability: 0.547
HOP-62; first compound 0.4 µM
  relative viability: 0.622
HOP-62; first compound 1.265 µM
  relative viability: 0.182
HOP-62; first compound 4 µM
  relative viability: 0.102
LC-2-ad; first compound 0.04 µM
  relative viability: 0.537
LC-2-ad; first compound 0.1265 µM
  relative viability: 0.468
LC-2-ad; first compound 0.4 µM
  relative viability: 0.401
LC-2-ad; first compound 1.265 µM
  relative viability: 0.222
LC-2-ad; first compound 4 µM
  relative viability: 0.294
LU99A; first compound 0.04 µM
  relative viability: 0.776
LU99A; first compound 0.1265 µM
  relative viability: 0.35
LU99A; first compound 0.4 µM
  relative viability: 0.734
LU99A; first compound 1.265 µM
  relative viability: 0.303
LU99A; first compound 4 µM
  relative viability: 0.26
LXF-289; first compound 0.04 µM
  relative viability: 0.518
LXF-289; first compound 0.1265 µM
  relative viability: 0.474
LXF-289; first compound 0.4 µM
  relative viability: 0.444
LXF-289; first compound 1.265 µM
  relative viability: 0.323
LXF-289; first compound 4 µM
  relative viability: 0.316
NCI-H1666; first compound 0.04 µM
  relative viability: 0.572
NCI-H1666; first compound 0.1265 µM
  relative viability: 0.596
NCI-H1666; first compound 0.4 µM
  relative viability: 0.501
NCI-H1666; first compound 1.265 µM
  relative viability: 0.516
NCI-H1666; first compound 4 µM
  relative viability: 0.486
NCI-H1792; first compound 0.04 µM
  relative viability: 0.323
NCI-H1792; first compound 0.1265 µM
  relative viability: 0.19
NCI-H1792; first compound 0.4 µM
  relative viability: 0.232
NCI-H1792; first compound 1.265 µM
  relative viability: 0.106
NCI-H1792; first compound 4 µM
  relative viability: 0.0948
NCI-H1793; first compound 0.04 µM
  relative viability: 0.315
NCI-H1793; first compound 0.1265 µM
  relative viability: 0.382
NCI-H1793; first compound 0.4 µM
  relative viability: 0.35
NCI-H1793; first compound 1.265 µM
  relative viability: 0.274
NCI-H1793; first compound 4 µM
  relative viability: 0.378
NCI-H1915; first compound 0.04 µM
  relative viability: 0.347
NCI-H1915; first compound 0.1265 µM
  relative viability: 0.334
NCI-H1915; first compound 0.4 µM
  relative viability: 0.329
NCI-H1915; first compound 1.265 µM
  relative viability: 0.212
NCI-H1915; first compound 4 µM
  relative viability: 0.177
NCI-H1944; first compound 0.04 µM
  relative viability: 0.195
NCI-H1944; first compound 0.1265 µM
  relative viability: 0.174
NCI-H1944; first compound 0.4 µM
  relative viability: 0.191
NCI-H1944; first compound 1.265 µM
  relative viability: 0.149
NCI-H1944; first compound 4 µM
  relative viability: 0.182
NCI-H2009; first compound 0.04 µM
  relative viability: 0.477
NCI-H2009; first compound 0.1265 µM
  relative viability: 0.339
NCI-H2009; first compound 0.4 µM
  relative viability: 0.291
NCI-H2009; first compound 1.265 µM
  relative viability: 0.205
NCI-H2009; first compound 4 µM
  relative viability: 0.223
NCI-H2085; first compound 0.04 µM
  relative viability: 0.712
NCI-H2085; first compound 0.1265 µM
  relative viability: 0.611
NCI-H2085; first compound 0.4 µM
  relative viability: 0.552
NCI-H2085; first compound 1.265 µM
  relative viability: 0.393
NCI-H2085; first compound 4 µM
  relative viability: 0.426
NCI-H2170; first compound 0.04 µM
  relative viability: 0.408
NCI-H2170; first compound 0.1265 µM
  relative viability: 0.394
NCI-H2170; first compound 0.4 µM
  relative viability: 0.402
NCI-H2170; first compound 1.265 µM
  relative viability: 0.354
NCI-H2170; first compound 4 µM
  relative viability: 0.315
NCI-H358; first compound 0.04 µM
  relative viability: 0.355
NCI-H358; first compound 0.1265 µM
  relative viability: 0.335
NCI-H358; first compound 0.4 µM
  relative viability: 0.361
NCI-H358; first compound 1.265 µM
  relative viability: 0.198
NCI-H358; first compound 4 µM
  relative viability: 0.161
NCI-H460; first compound 0.04 µM
  relative viability: 0.503
NCI-H460; first compound 0.1265 µM
  relative viability: 0.271
NCI-H460; first compound 0.4 µM
  relative viability: 0.123
NCI-H460; first compound 1.265 µM
  relative viability: 0.0422
NCI-H460; first compound 4 µM
  relative viability: 0.041
SK-LU-1; first compound 0.04 µM
  relative viability: 0.607
SK-LU-1; first compound 0.1265 µM
  relative viability: 0.386
SK-LU-1; first compound 0.4 µM
  relative viability: 0.458
SK-LU-1; first compound 1.265 µM
  relative viability: 0.171
SK-LU-1; first compound 4 µM
  relative viability: 0.136
SW 900; first compound 0.04 µM
  relative viability: 0.462
SW 900; first compound 0.1265 µM
  relative viability: 0.519
SW 900; first compound 0.4 µM
  relative viability: 0.285
SW 900; first compound 1.265 µM
  relative viability: 0.187
SW 900; first compound 4 µM
  relative viability: 0.139
UMC-11; first compound 0.04 µM
  relative viability: 0.29
UMC-11; first compound 0.1265 µM
  relative viability: 0.211
UMC-11; first compound 0.4 µM
  relative viability: 0.231
UMC-11; first compound 1.265 µM
  relative viability: 0.224
UMC-11; first compound 4 µM
  relative viability: 0.195
